The values that follow come from PMC9455918, “Quinolizidines as Novel SARS-CoV-2 Entry Inhibitors” (International Journal of Molecular Sciences, 2022).

The target in data set [1] is T1, cathepsin B (Homo sapiens, UniProt P07858).
T1 construct: purchased BPS bioscience 79590
Kind of data set: Cathepsin B inhibitor assay kit (BPS bioscience). Format: biochemical. As to conditions: for Inhibitory activity against cathepsin B: tested at 20 µM, duplicated experiment.

Data set [2] in a line: in vitro. Type of data set: cell-based. As to conditions: human; concentration that reduced viability of 293T-ACE2 cells by 50%; 3 days. The method, then:
The CellTiter-Glo® Luminescent Cell Viability Assay (Promega, Cat. # G7570 ) was used to determine the cytotoxicity of the aloperine derivatives. 293T-ACE2 cells were cultured in the presence of various concentrations of the compounds for 3 days. The cytotoxicity of the compounds was determined by following the protocol provided by the manufacturer. The 50% cytotoxic concentration (CC50) was defined as the concentration that caused a 50% reduction in cell viability.

In data set [3] the test system is HIV-1NL4-3-nanoluc-sec. As to conditions: previously described; ref [19],[20],[21],[22]; cited from earlier work.
Data set [4] deals with T2, cathepsin L (Homo sapiens, UniProt P07711).
T2 construct: purchased BPS bioscience
In words: Cathepsin L inhibitor assay kit (BPS bioscience). Conditions: tested at 20 µM, duplicated experiment. Format: biochemical.

The test system of data set [5] is PA/Puerto Rico/8/1934 Influenza A Virus (PR8). Conditions: cited from earlier work.
Data set [6] concerns D614G spike-pseudotyped virus in 293T-ACE2 cells. Format: cell-based. Conditions: 5 µM, 2 h infection with D614G spike-pseudotyped virus.
Data set [7] concerns murine leukemia virus envelope (MLV-env) pseudotyped virus. In words: microbe, parasite or virus in culture. Type of data set: cell-based. Conditions: spike protein replaced with MLV-env, marked ** in Table 1.
In data set [8] the test system is Delta spike-pseudotyped virus. In words: microbe, parasite or virus in culture. Type of data set: cell-based. Conditions: 293T-ACE2 cells.
For data set [9], the system named is Omicron BA.2 spike-pseudotyped virus. In words: microbe, parasite or virus in culture. Type of data set: cell-based. Conditions: 293T-ACE2 cells.
The subject of data set [10] is Omicron BA.4/BA.5 spike-pseudotyped virus. In words: microbe, parasite or virus in culture. Format: cell-based. As to conditions: 293T-ACE2 cells.
Data set [11] concerns PA/Puerto Rico/8/1934 Influenza A Virus (PR8). Kind of data set: microbe, parasite or virus in culture. Type of data set: cell-based. As to conditions: new compound 9, no reference given.
Data set [12] relates to HIV-1NL4-3-nanoluc-sec. Type of data set: cell-based. As to conditions: new compound 9, no reference given; Inac = CC50/IC50 ratio < 5.
Setting [13] is: Severe acute respiratory syndrome coronavirus 2.

Like-named read-outs stand apart in the source and are kept apart here. A value given as a limit tells only on which side of the number the result lay.

A word on the CC50: it is the concentration giving 50% cytotoxicity. Lower therefore signals harm at low concentration. For orientation: IC50 means the concentration needed to halve the response being measured.

T2 sequence (P07711 114-333): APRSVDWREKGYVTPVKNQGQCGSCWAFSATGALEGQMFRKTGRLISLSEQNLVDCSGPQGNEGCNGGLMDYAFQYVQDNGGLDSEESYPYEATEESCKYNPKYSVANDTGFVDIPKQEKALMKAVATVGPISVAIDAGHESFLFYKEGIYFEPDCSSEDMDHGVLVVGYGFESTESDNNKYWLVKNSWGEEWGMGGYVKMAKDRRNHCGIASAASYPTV

Regarding `C1=C2CCCN[C@H]2[C@@H]2C[C@H]1[C@H]1CCCCN1C2` [Aloperine, aloperine, reference compound], the “Inhibitory activity against cathepsin B” value in data set [1] is “inactive”. The CC50 in data set [2] was > 20 µM. Besides, the IC50 in data set [3] is 1.75 µM; in [5] it was 14.5 µM. Further, the “Inhibitory activity against cathepsin L” value in data set [4] was “inactive”.
Regarding `CCN(CC)CCCC(C)Nc1ccnc2cc(Cl)ccc12` (centres unmarked) [Chloroquine diphosphate, reference compound], in [6], the “Spike protein (virus) puncta in 293T-ACE2 cells under confocal microscope” value is reported as “no accumulation of viral puncta”.
In the case of `O=C(NCCCCCCN1CCCC2CC3CC(CN4CCCCC34)C21)c1c(F)cc(Br)cc1F` (centres unmarked) [Compound 1], the CC50 in data set [2] was > 20 µM. Also, the IC50 in data set [3] is > 20 µM; in data set [5], 0.091 µM.
Take `O=C(NCCN1CCCC2=CC3CC(CN4CCCCC34)C21)c1ccccc1F` (centres unmarked) [Compound 2]: the IC50 was > 25 µM in data set [3] and 5.5 µM in data set [5].
Consider `O=C(Cc1ccc(S(=O)(=O)C(F)(F)F)cc1)NCCCCN1CCCC2=CC3CC(CN4CCCCC34)C21` (centres unmarked) [Compound 3], for which, in data set [2], the CC50 was > 20 µM. The IC50 in [3] is 0.12 µM. Moreover, in [5], the IC50 is > 20 µM and the “IC50, PA/Puerto Rico/8/1934 Influenza A Virus (PR8)” value (from here on “IC50 … (PR8)”) is reported as “without anti-influenza virus activity”.
`C1=C2CCCN(CCCCCNCc3ccccc3)C2C2CC1C1CCCCN1C2` (centres unmarked) [Compound 4]: the CC50 in data set [2] was > 20 µM. In addition, the figures for the IC50 in data set [3] and in data set [5] were 0.84 µM and > 40 µM, respectively.
`C1=C2CCCN(CCCCNCc3ccccc3)C2C2CC1C1CCCCN1C2` (centres unmarked) [Compound 5]: the “Inhibitory activity against cathepsin B” value in [1] is “totally inactive”; in data set [1] (listed as compound 5), “did not inhibit”. Besides, the CC50 in data set [2] is > 20 µM. Besides, in [6], the “Spike protein (virus) puncta in 293T-ACE2 cells under confocal microscope” value was “observed as puncta”. Further, the IC50 was > 20 µM in data set [7] (Murine leukemia virus, read-out: Antiviral activity (IC50) against MLV-env pseudotyped virus); 0.96 µM in data set [3]; 0.58 ± 0.15 µM in data set [8] (setting [13]); 0.83 ± 0.21 µM in [9] (setting [13]); > 40 µM in [5]; 0.86 ± 0.25 µM in data set [10] (setting [13]). Moreover, the “Antiviral activity (IC50) against MLV-env pseudotyped virus” value in [7] is “inactive”. Also, the “Inhibitory activity against cathepsin L” value in data set [4] was “totally inactive”; in [4] (listed as compound 5), “did not inhibit”. In [5], the “IC50 … (PR8)” value was “ineffective”.
Take `COc1ccc(C(=O)NCCCCN2CCCC3=CC4CC(CN5CCCCC45)C32)cc1` (centres unmarked) [Compound 6]: the CC50 in data set [2] is > 20 µM. Further, the IC50 in data set [3] is 11.4 µM; in data set [5] it was > 20 µM.
As for `CC(C)(C)c1ccc(C(=O)NCCCCCCN2CCCC3=CC4CC(CN5CCCCC45)C32)cc1` (centres unmarked) [Compound 7], the CC50 in data set [2] was > 20 µM. In addition, the values for the IC50 in data set [3] and in data set [5] were 0.8 µM and 0.83 µM, respectively.
On to `O=C(NCCCCCCCC(=O)N1CCCC2=CC3CC(CN4CCCCC34)C21)c1ccc(OC(F)(F)F)cc1` (centres unmarked) [Compound 8], for which the CC50 in [2] is > 20 µM. Further, in [3], the IC50 was > 20 µM and the “IC50, HIV-1NL4-3-nanoluc-sec” value was “inactive”. For the same compound, in data set [5], the IC50 was > 28.5 µM and the “IC50 … (PR8)” value was “inactive”.
Consider `Fc1ccc(CNCCCCN2CCCC3=CC4CC(CN5CCCCC45)C32)cc1` (centres unmarked) [Compound 9], for which the CC50 in [2] is > 10 µM. In data set [11], this compound showed an IC50 of 4.8 ± 1.4 µM. Besides, the “IC50, HIV-1NL4-3-nanoluc-sec” value in data set [12] was “Inac ^8”.
Regarding `CC(C)C[C@H](NC(=O)[C@H]1O[C@@H]1C(=O)O)C(=O)NCCCCN=C(N)N` [Compound E64, E64, reference compound], the “Inhibition of enzyme activity (cathepsin B)” value in [1] (at 0.1 µM) was “more than 95%”.
As for `CCOC(=O)[C@H]1O[C@@H]1C(=O)N[C@@H](CC(C)C)C(=O)NCCC(C)C` [Compound E64D, E64D, reference compound], the IC50 was determined as 0.45 ± 0.082 µM in [8], 0.37 ± 0.066 µM in data set [9] and 0.34 ± 0.081 µM in data set [10].
